Earlier results, collected in patent US20100267960A1, “PROCESS FOR PREPARING PRAMIPEXOLE DIHYDROCHLORIDE TABLETS” (Boehringer Ingelheim Pharma GmbH & Co. KG, priority 2006, published 2010).
Structures can show the parent of a compound that is named as a salt.

What was measured:
[1] = not given; remark: listed apart in the source

light sensitivity in solution (in solution)	stability in the solid state (solid state)	hygroscopicity (solid)	solubility in buffer media ([1]; buffer media, between pH 2 and pH 7.4)	Water solubility ([1]; water)	Structure (SMILES)
light sensitive	very stable	–	–	–	CCCN[C@H]1CCc2nc(N)sc2C1 [Pramipexole, (S)-2-amino-4,5,6,7-tetrahydro-6-(propylamino)benzothiazole]
–	–	not hygroscopic	above 10 mg/mL	more than 20 mg/mL	CCCN[C@H]1CCc2nc(N)sc2C1 [Pramipexole dihydrochloride monohydrate, pramipexole dihydrochloride monohydrate]
